{"source": "patent US5885990A", "about": "“Substituted amidinonaphthyl ester derivative” (Torii Pharmaceutical Co., Ltd., priority 1995, dated 1999)", "key": {"[1]": {"test_system": "pulmonary thrombosis of mouse models (thrombin-induced)", "experiment": "Preventive effect on death due to pulmonary thrombosis of mouse models", "type": "in vivo", "design": "key: ratio of survival rate to positive control group's survival rate", "details": "ddy male mice, 10 mg/kg oral; thrombin 10 units/mouse via caudal vein after 6 hours; survival rate 16 hours after thrombin, as ratio to survival rate of positive control Sepimostat mesilate", "experimental": "(1) Preventive effect on death due to pulmonary thrombosis of mouse models:\nFor experiment, ddy male mice after a fast of 6 hours were used and 10 mg/kg of the present compound was orally administered. […] After lapse of 6 hours, 10 units/mouse of thrombin was administered to the mice through caudal vein to cause thrombosis for the mice. After 16 hours from thrombin-induction, mortality was checked and the preventive effect on death (survival rate) was indicated by the ratio to the survival rate of the positive control group."}, "[2]": {"test_system": "plasminogen activator inhibitor (PAI-1)", "experiment": "Measurement of plasminogen activator inhibitor (PAI-1) antigen quantity in plasma", "type": "in vivo, rat", "details": "SD male rats, 100 mg/kg oral; plasma of Test (2); ELISA; Water control 54.2", "experimental": "(3) Test of measurement of plasminogen activator inhibitor (PAI-1) antigen quantity:\nMeasurement of PAI-1 antigen quantity was conducted using the plasma obtained in the above Test (2).\nPreviously, 100 μl of a diluted 10 mM carbonate buffered solution of monoclonal antibody to PAI-1 was put in each well of a 96-well micro-titer plate and left to stand for 16 hours at 4° C., followed by washing, four times, with 10 mM phosphate buffer solution containing 0.1% Tween 20 and adding a standard solution and the plasma sample. After leaving for 2 hours at room temperature and washing again four times, 100 μl of an enzyme-labelled PAI-1 polyclonal antibody was added to carry out reaction at room temperature for 2 hours. After excess antibody was washed, 100 μl of citric acid buffer solution containing 10 mg of o-phenylenediamine and 0.1% hydrogen peroxide was added, followed by leaving it for 30 minutes at 30° C. to cause color formation. After the reaction was terminated by the addition of 50 μl of 2N sulfuric acid, absorbance at 405 nm was measured by a micro-plate reader to determine the PAI-1 antigen quantity in the plasma sample."}, "[3]": {"test_system": "blood plasmin like activity", "experiment": "Determination of blood plasmin like activity using synthetic substrate (plasma after oral dosing)", "type": "in vivo, rat", "details": "SD male rats, 100 mg/kg oral, substrate Boc-Val-Leu-Lys-MCA, pH 8.5, 37° C., 30 minutes, Water control 0.07", "experimental": "(2) Test of determination of blood plasmin like activity using synthetic substrate:\nFor the test, SD male rats (8 weeks old) after fasted overnight were used, and 100 mg/kg of the present compound was orally administered to the rats, and blood was drawn, with time, from the descending aorta as citrate-containing blood and subjected to centrifugation to obtain plasma. Water was orally administered to the rats of control group and plasma was similarly obtained.\nTo the plasma obtained were added 0.1M borate buffer solution (pH 8.5) and Boc-Val-Leu-Lys-MCA and incubation was conducted at 37° C. for 30 minutes."}}, "note": "Counter-ions that a name gives are not always drawn."}
{"smiles": "N=C(N)c1ccc2c(CC(N)=O)c(OC(=O)c3ccc(NC4=NCCN4)cc3)ccc2c1", "note": "[Example 1, 6-amidino-1-carbamoylmethyl-2-naphthyl 4-[(4,5-dihydro-1H-imidazol-2-yl)amino]-benzoate.dihydrochloride]", "values": [{"measurement": "Preventive effect on death", "setting": "[1]", "value": 1.16}, {"measurement": "PAI-1 antigen quantity", "setting": "[2]", "value": 28.5, "unit": "ng/mL"}, {"measurement": "Plasmin like activity", "setting": "[3]", "value": 0.37, "unit": "nmol/min/mL"}]}
{"smiles": "CN(C)C(=O)COC(=O)c1c(OC(=O)c2ccc(NC3=NCCN3)cc2)ccc2cc(C(=N)N)ccc12", "note": "[Example 48, 6-amidino-1-dimethylcarbamoylmethoxycarbonyl-2-naphthyl 4-[(4,5-dihydro-1H-imidazol-2-yl)amino]benzoate.dihydrochloride]", "values": [{"measurement": "Preventive effect on death", "setting": "[1]", "value": 0.96}]}
{"smiles": "N=C(N)c1ccc2c(CC(N)=O)c(OC(=O)c3ccc([N+](=O)[O-])cc3)ccc2c1", "note": "[Example 11, 6-amidino-1-carbamoylmethyl-2-naphthyl 4-nitrobenzoate.hydrochloride]", "values": [{"measurement": "Preventive effect on death", "setting": "[1]", "value": 1.12}]}
{"smiles": "COC(=O)Cc1c(OC(=O)c2ccc(NC3=NCCN3)cc2)ccc2cc(C(=N)N)ccc12", "note": "[Example 39, 6-amidino-1-methoxycarbonylmethyl-2-naphthyl 4-[(4,5-dihydro-1H-imidazol-2-yl)amino]benzoate.dimethanesulfonate]", "values": [{"measurement": "Preventive effect on death", "setting": "[1]", "value": 1.19}, {"measurement": "Plasmin like activity", "setting": "[3]", "value": 0.58, "unit": "nmol/min/mL"}]}
{"smiles": "CC(=O)NCCN=CNCNc1ccc(C(=O)Oc2ccc3cc(C(=N)N)ccc3c2CC(N)=O)cc1.Cl.Cl", "note": "[Example 3, 6-amidino-1-carbamoylmethyl-2-naphthyl 4-[(2-acetylaminoethyl)iminomethylaminomethylamino]benzoate.dihydrochloride]", "values": [{"measurement": "Preventive effect on death", "setting": "[1]", "value": 1.09}]}
{"smiles": "CN(C)CCNC(=N)Nc1ccc(C(=O)Oc2ccc3cc(C(=N)N)ccc3c2CC(N)=O)cc1", "note": "[Example 17, 6-amidino-1-carbamoylmethyl-2-naphthyl 4-[(2-dimethylaminoethyl)aminoiminomethylamino]benzoate.trihydrochloride]", "values": [{"measurement": "Plasmin like activity", "setting": "[3]", "value": 0.62, "unit": "nmol/min/mL"}]}
{"smiles": "N=C(N)c1ccc2c(CC(N)=O)c(OC(=O)c3ccc(NC4=NCCS4)cc3)ccc2c1", "note": "[Example 31, 6-amidino-1-carbamoylmethyl-2-naphthyl 4-[(4,5-dihydrothiazol-2-yl)amino]-benzoate.dihydrochloride]", "values": [{"measurement": "Preventive effect on death", "setting": "[1]", "value": 1.00}]}
{"smiles": "N=C(NCCN1CCCC1)Nc1ccc(C(=O)Oc2ccc3cc(C(=N)N)ccc3c2CC(N)=O)cc1", "note": "[Example 24]", "values": [{"measurement": "Plasmin like activity", "setting": "[3]", "value": 0.55, "unit": "nmol/min/mL"}]}
{"smiles": "CNC(=N)Nc1ccc(C(=O)Oc2ccc3cc(C(=N)N)ccc3c2CC(N)=O)cc1", "note": "[Example 26, 6-amidino-1-carbamoylmethyl-2-naphthyl 4-methylaminoiminomethylaminobenzoate.dihydrochloride]", "values": [{"measurement": "Plasmin like activity", "setting": "[3]", "value": 0.60, "unit": "nmol/min/mL"}]}
{"smiles": "N=C(N)c1ccc2c(CC(N)=O)c(OC(=O)c3ccc(N)cc3)ccc2c1", "note": "[Example 12, 6-amidino-1-carbamoylmethyl-2-naphthyl 4-aminobenzoate.dihydrochloride]", "values": [{"measurement": "Preventive effect on death", "setting": "[1]", "value": 1.05}]}
{"smiles": "CN=C(NC)Nc1ccc(C(=O)Oc2ccc3cc(C(=N)N)ccc3c2CC(N)=O)cc1", "note": "[Example 27, 6-amidino-1-carbamoylmethyl-2-naphthyl 4-methylaminomethyliminomethylaminobenzoate.dihydrochloride]", "values": [{"measurement": "Plasmin like activity", "setting": "[3]", "value": 0.52, "unit": "nmol/min/mL"}]}
{"smiles": "N=C(NCCO)Nc1ccc(C(=O)Oc2ccc3cc(C(=N)N)ccc3c2CC(N)=O)cc1", "note": "[Example 7, 6-amidino-1-carbamoylmethyl-2-naphthyl 4-[(2-hydroxyethyl)aminoiminomethylamino]-benzoate.dihydrochloride]", "values": [{"measurement": "Preventive effect on death", "setting": "[1]", "value": 1.05}, {"measurement": "Plasmin like activity", "setting": "[3]", "value": 0.62, "unit": "nmol/min/mL"}]}
{"smiles": "CN(C)c1ccc(C(=O)Oc2ccc3cc(C(=N)N)ccc3c2CC(N)=O)cc1", "note": "[Example 15, 6-amidino-1-carbamoylmethyl-2-naphthyl 4-dimethylaminobenzoate.dihydrochloride]", "values": [{"measurement": "Preventive effect on death", "setting": "[1]", "value": 1.05}]}
{"smiles": "N=C(N)c1ccc2c(CCC(N)=O)c(OC(=O)c3ccc(NC4=NCCN4)cc3)ccc2c1", "note": "[Example 5, 6-amidino-1-(2-carbamoylethyl)-2-naphthyl 4-[(4,5-dihydro-1H-imidazol-2-yl)amino]-benzoate.dihydrochloride]", "values": [{"measurement": "Preventive effect on death", "setting": "[1]", "value": 1.00}]}
{"smiles": "Cl.Cl.N=C(N)Nc1ccc(C(=O)Oc2ccc3cc(C(=N)N)ccc3c2C=CC(N)=O)cc1", "note": "[Example 46, 6-amidino-1-(2-carbamoylvinyl)-2-naphthyl 4-aminoiminomethylaminobenzoate.dihydrochloride]", "values": [{"measurement": "Plasmin like activity", "setting": "[3]", "value": 0.63, "unit": "nmol/min/mL"}]}
